Measured values reported in article PMC9181852, “In Vivo and In Vitro Biological Evaluation and Molecular Docking Studies of Compounds Isolated from Micromeria biflora (Buch. Ham. ex D.Don) Benth” (Molecules, 2022).

Experiments:
[1] = test system: mouse hepatocytes; experiment: Cytotoxicity MTT assay, mouse hepatocytes; assay type: cell-based
Experimental: (§1) Salicylalazine isolated from M. biflora was also screened for in vitro cytotoxicity using mouse hepatocytes and LCMK-2 monkey kidney cells. According to the MTT assay, salicylalazine was incubated for 24 h and the viability of the cell was identified. In this screening test, the cells were kept in RPMI 1640 medium as per the reported method. The medium used in this experiment consisted of streptomycin sulfate, NaHCO3 solution, and penicillin sodium salt, and FBS in proper proportion. The initial seeding of 8.6 × 10^3 mice hepatocytes and 7.1 × 10^3 LCMK-2 cells was indicated in 96 well plates. The cells were preserved with salicylalazine at different concentrations, and vehicle (0.2% DMSO), and hatching was performed for […] by MTT following our previously reported method.

[2] = test system: MDR2780AD; experiment: Anticancer MTT assay, MDR2780AD; assay type: cell-based; conditions: 24 h
[3] = Inclined plane muscle relaxation model; assay type: in vivo, mice (Balb/c)
Experimental: (§2) Healthy mice (Balb/c) with weight ranging from 20 to 22 g and ages 9 to 10 weeks were used in this screening model. The grown animals were provided with standard laboratory conditions such as standard food and water ad libitum. The in vivo biological screening test was performed at the Department of Veterinary Medicine, College of Agriculture and Veterinary Medicine, Qassim University Buraydah, Saudi Arabia, as well as Swabi University, KP, Pakistan, according to published procedures.
An inclined plane screening procedure was adapted to identify the muscle relaxation effects of salicylalazine isolated from M. biflora according to a reported procedure. The inclined plane used in screening contained two plywood boards, and these boards were connected, where one board was at 60 0 from the base while the other one was aligned from the base. Various groups of animals were distributed into several groups; each group comprised six animals (n = 6). Animals in each group were administered water (10 mL/kg), standard drug (diazepam, 1 mg/kg), and salicylalazine at different doses of 2.5, 5, 10, 15, and 20 mg/kg, i.p. After various time intervals, such as 30, 60, and 90 min post-administration, animals were allowed on the higher part of the inclined plane for 30 s to drop or hang.

[4] = Open field sedative test; assay type: in vivo, mice (Balb/c); conditions: 30 min after administration
Experimental: as §2
The sedative potential of salicylalazine isolated from M. biflora was assessed as per the reported procedure. The animals were divided into different groups, as designated above. The apparatuses used in this screening contained an area of white wood with a 150 cm diameter bordered by stainless steel walls and was separated into 19 squares by black lines. Then, the open field apparatus was positioned inside the light and sound-reduced room. The different groups of animals were administered distilled water, diazepam, and salicylalazine at different doses. Thirty minutes after administration, all groups of animals were permitted to move from the center of the design box. […] Statistical calculations were performed by counting the number of lines crossed by every animal.

[5] = molecular target: COX-1 (Homo sapiens, UniProt P23219); experiment: In vitro COX-1 inhibition (screening kit)
Chain of COX-1 (P23219 24-599): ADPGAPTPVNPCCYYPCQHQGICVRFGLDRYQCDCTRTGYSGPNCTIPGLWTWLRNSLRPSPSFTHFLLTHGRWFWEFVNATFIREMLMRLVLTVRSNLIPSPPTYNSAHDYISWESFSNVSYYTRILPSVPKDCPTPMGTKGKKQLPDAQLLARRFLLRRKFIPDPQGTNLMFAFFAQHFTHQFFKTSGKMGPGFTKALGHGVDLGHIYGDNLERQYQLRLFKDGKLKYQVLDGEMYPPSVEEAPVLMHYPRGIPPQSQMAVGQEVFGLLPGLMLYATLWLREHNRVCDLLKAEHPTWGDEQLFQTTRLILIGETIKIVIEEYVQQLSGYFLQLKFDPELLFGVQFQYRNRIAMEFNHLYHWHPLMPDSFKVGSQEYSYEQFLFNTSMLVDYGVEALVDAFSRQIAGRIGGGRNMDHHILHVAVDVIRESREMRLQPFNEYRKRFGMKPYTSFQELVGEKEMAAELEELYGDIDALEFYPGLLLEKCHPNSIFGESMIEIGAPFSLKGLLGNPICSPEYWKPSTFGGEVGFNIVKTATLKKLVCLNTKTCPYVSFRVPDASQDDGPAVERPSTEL
Experimental: (§3) The in vitro inhibition of cyclooxygenases (COX-1 and COX-2) by the isolated compounds was determined using screening kits.

[6] = Histamine-induced paw edema; assay type: in vivo, mice
Experimental: as §2
The anti-inflammatory potential of salicylalazine isolated from M. biflora was determined as per our recently published method. The induction of inflammation was completed by administering 0.1 mL histamine (0.5%) to the animal’s sub plantar region. The volume of the paw was recorded 1–5 h after the administration of the inflammatory drug. Then, every group of animals was divided and pretreated orally with salicylalazine (15 and 20 mg/kg) for 1 h before making paw edema. The effect of the drug was related to that of loratadine (standard).

[7] = test system: LCMK-2 monkey kidney cells; experiment: Cytotoxicity MTT assay, LCMK-2 monkey kidney cells; assay type: cell-based
Experimental: as §1

[8] = molecular target: T1, COX-2 (Homo sapiens, UniProt P35354); experiment: In vitro COX-2 inhibition (screening kit); assay type: biochemical
T1 construct: purchased
T1 sequence (P35354 18-604): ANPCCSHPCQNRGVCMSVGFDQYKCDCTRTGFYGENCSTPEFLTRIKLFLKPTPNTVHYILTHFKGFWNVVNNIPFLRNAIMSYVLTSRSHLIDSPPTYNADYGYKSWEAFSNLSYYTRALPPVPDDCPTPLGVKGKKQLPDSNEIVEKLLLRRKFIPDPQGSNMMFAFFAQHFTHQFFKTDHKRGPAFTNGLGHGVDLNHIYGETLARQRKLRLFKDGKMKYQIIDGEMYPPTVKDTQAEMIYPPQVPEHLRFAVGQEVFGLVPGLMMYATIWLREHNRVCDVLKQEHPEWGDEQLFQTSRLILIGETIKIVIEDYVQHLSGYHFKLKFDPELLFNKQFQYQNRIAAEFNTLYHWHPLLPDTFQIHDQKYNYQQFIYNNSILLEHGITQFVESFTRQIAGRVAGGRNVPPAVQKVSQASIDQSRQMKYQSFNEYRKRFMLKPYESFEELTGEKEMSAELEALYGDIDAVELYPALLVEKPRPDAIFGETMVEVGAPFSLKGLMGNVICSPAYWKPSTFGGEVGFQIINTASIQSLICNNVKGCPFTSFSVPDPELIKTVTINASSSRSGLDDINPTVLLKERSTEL
Experimental: as §3

[9] = test system: NCI-H226; experiment: Anticancer MTT assay, NCI-H226; assay type: cell-based; conditions: Homo sapiens, 24 h
Experimental: The MTT assay was used to assess the cytotoxicity of salicylalazine isolated from M. biflora as per the previously documented method. For the MTT assay, Gibco BRL was combined with 100 µg/mL of penicillin sodium salts, 10% FBS (Gibco), and sodium carbonate (2 mg/mL). The prepared medium was used to keep three human cancer cell lines: human hepatoma (HepG2), human A498, and renal NCI-h226 non-small cell lung). Mouse hepatocytes, including HepG2 and HepG-R, were planted in 96-well plates. The cell lines were preserved with salicylalazine (1.5–100 μM), hatched for 24 h, and then they were tracked using the MTT procedure^14. This method was used for all tested cell lines. The IC50 value of salicylalazine in different cell lines was calculated from the concentration-effect curves. The standard drug used in this experiment was paclitaxel.

Oc1ccccc1/C=N/N=C/c1ccccc1O [Salicylalazine, salicylalazine]
In vitro cytotoxicity (MTT) [1]: did not exhibit any considerable cytotoxicity
IC50 [2]: 0.85 ± 0.09 µM
Inclined Plane Test (%) ([3]; dose 2.5 mg/kg i.p., 30 min): 20.11 ± 1.45%
Inclined Plane Test (%) ([3]; dose 2.5 mg/kg i.p., 60 min): 26.23 ± 1.66%
Inclined Plane Test (%) ([3]; dose 2.5 mg/kg i.p., 90 min): 27.45 ± 1.23%
Inclined Plane Test (%) ([3]; dose 5 mg/kg i.p., 30 min): 27.34 ± 1.66%
Inclined Plane Test (%) ([3]; dose 5 mg/kg i.p., 60 min): 33.09 ± 1.60%
Inclined Plane Test (%) ([3]; dose 5 mg/kg i.p., 90 min): 34.09 ± 1.30%
Inclined Plane Test (%) ([3]; dose 10 mg/kg i.p., 30 min): 33.98 ± 1.40%
Inclined Plane Test (%) ([3]; dose 10 mg/kg i.p., 60 min): 38.08 ± 1.55%
Inclined Plane Test (%) ([3]; dose 10 mg/kg i.p., 90 min): 39.43 ± 1.28%
Inclined Plane Test (%) ([3]; dose 15 mg/kg i.p., 30 min): 44.53 ± 1.43%
Inclined Plane Test (%) ([3]; dose 15 mg/kg i.p., 60 min): 50.94 ± 1.50%
Inclined Plane Test (%) ([3]; dose 15 mg/kg i.p., 90 min): 51.52 ± 1.20%
Inclined Plane Test (%) ([3]; dose 20 mg/kg i.p., 30 min): 52.09 ± 1.30%
Inclined Plane Test (%) ([3]; dose 20 mg/kg i.p., 60 min): 59.34 ± 1.45%
Inclined Plane Test (%) ([3]; dose 20 mg/kg i.p., 90 min): 60.88 ± 1.19%
No of Lines Crossed ([4]; dose 2.5 mg/kg): 78.54 ± 0.98
No of Lines Crossed ([4]; dose 5 mg/kg): 69.98 ± 1.22
No of Lines Crossed ([4]; dose 10 mg/kg): 60.90 ± 1.00
No of Lines Crossed ([4]; dose 15 mg/kg): 51.09 ± 0.97
No of Lines Crossed ([4]; dose 20 mg/kg): 40.98 ± 0.80
IC50 [5]: 44.1 ± 1.18 µM
Effect on histamine-induced paw edema ([6]; 15 mg/kg, 1 h): 78.45%
Effect on histamine-induced paw edema ([6]; 15 mg/kg, 2 h): 74.33%
Effect on histamine-induced paw edema ([6]; 15 mg/kg, 3 h): 58.09%
Effect on histamine-induced paw edema ([6]; 20 mg/kg, 1 h): 90.55%
Effect on histamine-induced paw edema ([6]; 20 mg/kg, 2 h): 93.99%
Effect on histamine-induced paw edema ([6]; 20 mg/kg, 3 h): 86.11%
In vitro cytotoxicity (MTT) [7]: did not exhibit any considerable cytotoxicity
IC50 [8]: 9.08 ± 0.11 µM
SI ([8]; SI = IC50 (COX-1)/IC50 (COX-2)): 4.85
IC50 [9]: 64.98 ± 0.11 µM
melting point: 215 to 218 °C
